The values below come from patent US10004701B2, “Methods and compositions for treating infection” (UNIVERSITY OF ROCHESTER, priority 2012, dated 2018).

Common to all, as to assay: AK assay 384-well format, Prestwick library screening
For test [1], the system named is E. faecium. The test is classed as cell-based, Enterococcus faecium. To be noted: for fold induction at 50 µM: Enterococcus faecium, 3 h.
Test [2] has as its system S. aureus strain USA300-0114. The test is classed as cell-based, Staphylococcus aureus. The conditions noted are these: for fold induction at 50 µM: Staphylococcus aureus, USA300, 3 h.
The test system of test [3] is K. pneumoniae. Type of test: cell-based, Klebsiella pneumoniae. To be noted: for fold induction at 50 µM: Klebsiella pneumoniae, 3 h.
In test [4] the test system is A. baumannii strain 98-37-09. The test is classed as cell-based, Acinetobacter baumannii. The conditions noted are these: for fold induction at 50 µM: Acinetobacter baumannii, 983709, 3 h.
The subject of test [5] is P. aeruginosa. The test is classed as cell-based, Pseudomonas aeruginosa. The conditions noted are these: for fold induction at 50 µM: Pseudomonas aeruginosa, 3 h.
Test [6] relates to E. cloacae. The test is classed as cell-based, Enterobacter cloacae. The conditions noted are these: for fold induction at 50 µM: Enterobacter cloacae, 3 h.
Test [7] concerns E. coli. The test is classed as cell-based, Escherichia coli. To be noted: 50 μM final drug concentration; for fold induction at 50 µM: Escherichia coli, 3 h.
The mark [8] stands for this setting: planktonic E. faecium, 50 μM final drug concentration, cutoff for positive-scoring molecules 3-fold increase, read-out: AK-based Prestwick Library Screening Results, E. faecium (increase in extracellular AK activity).
[9] abbreviates: planktonic S. aureus, 50 μM final drug concentration, cutoff for positive-scoring molecules 3-fold increase, read-out: AK-based Prestwick Library Screening Results, S. aureus (increase in extracellular AK activity).
Where [10] appears, read: planktonic K. pneumoniae, 50 μM final drug concentration, cutoff for positive-scoring molecules 3-fold increase, read-out: AK-based Prestwick Library Screening Results, K. pneumoniae (increase in extracellular AK activity).
[11] abbreviates: planktonic A. baumannii, 50 μM final drug concentration, cutoff for positive-scoring molecules 3-fold increase, read-out: AK-based Prestwick Library Screening Results, A. baumannii (increase in extracellular AK activity).
Setting [12] is: planktonic P. aeruginosa, 50 μM final drug concentration, cutoff for positive-scoring molecules 3-fold increase, read-out: AK-based Prestwick Library Screening Results, P. aeruginosa (increase in extracellular AK activity).
Setting [13] is: planktonic E. cloacae, 50 μM final drug concentration, cutoff for positive-scoring molecules 3-fold increase, read-out: AK-based Prestwick Library Screening Results, E. cloacae (increase in extracellular AK activity).
[14] abbreviates: planktonic E. coli, cutoff for positive-scoring molecules 3-fold increase, read-out: AK-based Prestwick Library Screening Results, E. coli (increase in extracellular AK activity).
The mark [15] stands for this setting: 50 μM final drug concentration, 384-well format, cutoff for positive-scoring molecules 3-fold increase, read-out: AK-based Prestwick Library Screening Results, E. faecium (increase in extracellular AK activity).
The mark [16] stands for this setting: 50 μM final drug concentration, 384-well format, cutoff for positive-scoring molecules 3-fold increase, read-out: AK-based Prestwick Library Screening Results, S. aureus (increase in extracellular AK activity).
Setting [17] is: 50 μM final drug concentration, 384-well format, cutoff for positive-scoring molecules 3-fold increase, read-out: AK-based Prestwick Library Screening Results, K. pneumoniae (increase in extracellular AK activity).
[18] abbreviates: 50 μM final drug concentration, 384-well format, cutoff for positive-scoring molecules 3-fold increase, read-out: AK-based Prestwick Library Screening Results, A. baumannii (increase in extracellular AK activity).
Where [19] appears, read: 50 μM final drug concentration, 384-well format, cutoff for positive-scoring molecules 3-fold increase, read-out: AK-based Prestwick Library Screening Results, P. aeruginosa (increase in extracellular AK activity).
The mark [20] stands for this setting: 50 μM final drug concentration, 384-well format, cutoff for positive-scoring molecules 3-fold increase, read-out: AK-based Prestwick Library Screening Results, E. cloacae (increase in extracellular AK activity).
[21] abbreviates: 384-well format, cutoff for positive-scoring molecules 3-fold increase, read-out: AK-based Prestwick Library Screening Results, E. coli (increase in extracellular AK activity).

Counter-ions that a name gives are not always drawn. Like-named read-outs stand apart in the source and are kept apart here.

As to `CNC(C)CCC=C(C)C.CNC(C)CCC=C(C)C.O=C(O)[C@@H](O)[C@H](O)[C@H](O)[C@@H](O)C(=O)O` [Isometheptene mutate], in test [1], the “AK-based Prestwick library screening result, E. faecium (fold increase in extracellular AK activity)” value stood at 1.0. Also, the “AK-based Prestwick library screening result, S. aureus (fold increase in extracellular AK activity)” value in test [2] came out at 1.2. Further, the “AK-based Prestwick library screening result, K. pneumoniae (fold increase in extracellular AK activity)” value in test [3] amounted to 1.1. In test [4], the “AK-based Prestwick library screening result, A. baumannii (fold increase in extracellular AK activity)” value was determined as 1.5. Moreover, in test [5], the “AK-based Prestwick library screening result, P. aeruginosa (fold increase in extracellular AK activity)” value amounted to 1.1. Further, the “AK-based Prestwick library screening result, E. cloacae (fold increase in extracellular AK activity)” value in test [6] is 1.2. Moreover, in test [7] (planktonic E. coli, […]), the “AK-based Prestwick library screening result, E. coli (fold increase in extracellular AK activity)” value is on record as 1.2.

For `CCCc1cc(=O)[nH]c(=S)[nH]1` [Propylthiouracil], the fold induction at 50 µM was 1 in test [1] (setting [8]); 0.7 in test [2] (setting [9]); 0.6 in test [3] (setting [10]); 0.8 in test [4] (setting [11]); 0.7 in test [5] (setting [12]); 1.1 in test [6] (setting [13]). Further, the fold induction at 50 µM in test [7] (setting [14]) amounted to 0.7.

Turning to `CCOC(=O)Oc1c(OC)cc(C(=O)O[C@@H]2C[C@@H]3CN4CCc5c([nH]c6cc(OC)ccc56)[C@H]4C[C@@H]3[C@H](C(=O)OC)[C@H]2OC)cc1OC` [Syrosingopine], the fold induction at 50 µM in test [1] (setting [8]) is 0.9; in test [2] (setting [9]) it was 0.3; in test [3] (setting [10]), 0.5; in test [4] (setting [11]), 0.6; in test [5] (setting [12]), 0.5; in test [6] (setting [13]), 0.6. In test [7] (setting [14]), the fold induction at 50 µM was determined as 0.6.

As to `C[C@H](CCC(=O)O)[C@H]1CC[C@H]2[C@@H]3C(=O)C[C@@H]4CC(=O)CC[C@]4(C)[C@H]3CC(=O)[C@]12C` [Dehydrocholic acid], the fold induction at 50 µM in test [1] (setting [15]) was found to be 1; in test [2] (setting [16]), 1; in test [3] (setting [17]), 0.8; in test [4] (setting [18]), 1; in test [5] (setting [19]), 1; in test [6] (setting [20]), 1.4. In addition, in test [7] (setting [21]), the fold induction at 50 µM came out at 1.3.

In the case of `CN1C(C(=O)Nc2ccccn2)=C(O)c2sccc2S1(=O)=O` [Tenoxicam], the fold induction at 50 µM in test [1] (50 μM final drug concentration, planktonic, cutoff for positive 3-fold increase, read-out: AK-based Prestwick Library Screening Results, E. faecium (fold increase in extracellular AK activity)) came to 1; in test [2] (50 μM final drug concentration, planktonic, cutoff for positive 3-fold increase, read-out: AK-based Prestwick Library Screening Results, S. aureus (fold increase in extracellular AK activity)), 1.2; in test [3] (50 μM final drug concentration, planktonic, cutoff for positive 3-fold increase, read-out: AK-based Prestwick Library Screening Results, K. pneumoniae (fold increase in extracellular AK activity)) it was 0.9; in test [4] (50 μM final drug concentration, planktonic, cutoff for positive 3-fold increase, read-out: AK-based Prestwick Library Screening Results, A. baumannii (fold increase in extracellular AK activity)), 1; in test [5] (50 μM final drug concentration, planktonic, cutoff for positive 3-fold increase, read-out: AK-based Prestwick Library Screening Results, P. aeruginosa (fold increase in extracellular AK activity)), 1.1; in test [6] (50 μM final drug concentration, planktonic, cutoff for positive 3-fold increase, read-out: AK-based Prestwick Library Screening Results, E. cloacae (fold increase in extracellular AK activity)), 1.6. Further, the fold induction at 50 µM in test [7] (planktonic, cutoff for positive 3-fold increase, read-out: AK-based Prestwick Library Screening Results, E. coli (fold increase in extracellular AK activity)) worked out at 1.3.

Regarding `Clc1ccc(C(Cn2ccnc2)OCc2c(Cl)cccc2Cl)c(Cl)c1` (centres unmarked) [Isoconazole], the fold induction at 50 µM in test [1] (setting [15]) was determined as 1.8; in test [2] (setting [16]), 5.2; in test [3] (setting [17]), 1.4; in test [4] (setting [18]), 5.6; in test [5] (setting [19]), 1.3; in test [6] (setting [20]) it was 1.7. For the same molecule, in test [7] (setting [21]), the fold induction at 50 µM worked out at 1.8.

In the case of Ifenprodil tartrate, in test [1] (planktonic E. faecium, 50 μM final drug concentration, 384-well, cutoff for positive-scoring molecules 3-fold increase), the “AK-based Prestwick Library Screening Results: E. faecium (increase in extracellular AK activity)” value stood at 1.0. Besides, the “AK-based Prestwick Library Screening Results: S. aureus (increase in extracellular AK activity)” value in test [2] (planktonic S. aureus, 50 μM final drug concentration, 384-well, cutoff for positive-scoring molecules 3-fold increase) was found to be 1.1. The “AK-based Prestwick Library Screening Results: K. pneumoniae (increase in extracellular AK activity)” value in test [3] (planktonic K. pneumoniae, 50 μM final drug concentration, 384-well, cutoff for positive-scoring molecules 3-fold increase) was 1.3. Further, the “AK-based Prestwick Library Screening Results: A. baumannii (increase in extracellular AK activity)” value in test [4] (planktonic A. baumannii, 50 μM final drug concentration, 384-well, cutoff for positive-scoring molecules 3-fold increase) came out at 1.4. Moreover, in test [5] (planktonic P. aeruginosa, 50 μM final drug concentration, 384-well, cutoff for positive-scoring molecules 3-fold increase), the “AK-based Prestwick Library Screening Results: P. aeruginosa (increase in extracellular AK activity)” value was 1.2. In addition, in test [6] (planktonic E. cloacae, 50 μM final drug concentration, 384-well, cutoff for positive-scoring molecules 3-fold increase), the “AK-based Prestwick Library Screening Results: E. cloacae (increase in extracellular AK activity)” value was determined as 1.3. Further, in test [7] (planktonic E. coli, 384-well, cutoff for positive-scoring molecules 3-fold increase), the “AK-based Prestwick Library Screening Results: E. coli (increase in extracellular AK activity)” value stood at 1.2.

On to `CCN(CC)CCOC(=O)c1ccc(N)cc1` [Procaine hydrochloride], for which the fold induction at 50 µM in test [1] (setting [15]) was determined as 0.9; in test [2] (setting [16]) it was 1.2; in test [3] (setting [17]) it was 1; in test [4] (setting [18]), 1.1; in test [5] (setting [19]) it was 1; in test [6] (setting [20]), 1.4. Also, the fold induction at 50 µM in test [7] (setting [21]) worked out at 1.2.

Take `OCCN1CCN(CC/C=C2/c3ccccc3Sc3ccc(Cl)cc32)CC1` [Zuclopenthixol hydrochloride]: the fold induction at 50 µM in test [1] (planktonic E. faecium, 50 μM final drug concentration, positive cutoff 3-fold increase, read-out: AK-based Prestwick library screening result, E. faecium (fold increase in extracellular AK activity)) is 1; in test [2] (planktonic S. aureus, 50 μM final drug concentration, positive cutoff 3-fold increase, read-out: AK-based Prestwick library screening result, S. aureus (fold increase in extracellular AK activity)), 0.7; in test [3] (planktonic K. pneumoniae, 50 μM final drug concentration, positive cutoff 3-fold increase, read-out: AK-based Prestwick library screening result, K. pneumoniae (fold increase in extracellular AK activity)), 1; in test [4] (planktonic A. baumannii, 50 μM final drug concentration, positive cutoff 3-fold increase, read-out: AK-based Prestwick library screening result, A. baumannii (fold increase in extracellular AK activity)), 1.9; in test [5] (planktonic P. aeruginosa, 50 μM final drug concentration, positive cutoff 3-fold increase, read-out: AK-based Prestwick library screening result, P. aeruginosa (fold increase in extracellular AK activity)), 0.9; in test [6] (planktonic E. cloacae, 50 μM final drug concentration, positive cutoff 3-fold increase, read-out: AK-based Prestwick library screening result, E. cloacae (fold increase in extracellular AK activity)), 1.3. Besides, the fold induction at 50 µM in test [7] (planktonic E. coli, positive cutoff 3-fold increase, read-out: AK-based Prestwick library screening result, E. coli (fold increase in extracellular AK activity)) worked out at 1.2.

Regarding `COC(=O)Nc1nc2ccc(C(=O)c3cccs3)cc2[nH]1` [Nocodazole], the fold induction at 50 µM is 0.9 in test [1] (setting [15]); 0.6 in test [2] (setting [16]); 0.5 in test [3] (setting [17]); 0.6 in test [4] (setting [18]); 0.6 in test [5] (setting [19]); 0.7 in test [6] (setting [20]). In addition, the fold induction at 50 µM in test [7] (setting [21]) was found to be 0.6.

Take `Cc1noc(NS(=O)(=O)c2ccc(N)cc2)c1C` [Sulfisoxazole]: the fold induction at 50 µM stood at 0.9 in test [1] (setting [8]); 0.5 in test [2] (setting [9]); 0.5 in test [3] (setting [10]); 1 in test [4] (setting [11]); 0.6 in test [5] (setting [12]); 0.7 in test [6] (setting [13]). Besides, the fold induction at 50 µM in test [7] (setting [14]) amounted to 0.7.
